Measurements as given in patent publication US8293781B2, “Indole derivatives having cPLA2 inhibiting activity and applications and production methods of the same” (Daiichi Sankyo Company, Limited, priority 2007, dated 2012).
Structures can show the parent of a compound that is named as a salt.

Molecular target: T1, cPLA2 crudely purified from the cytoplasm fraction of U937 (Homo sapiens, UniProt P47712)
T1 construct: cPLA2 crudely purified from the cytoplasm fraction of U937; endogenous in cells; host or cells: U937 cells (cytoplasm fraction, crude purification)
T1 sequence (P47712 1-749): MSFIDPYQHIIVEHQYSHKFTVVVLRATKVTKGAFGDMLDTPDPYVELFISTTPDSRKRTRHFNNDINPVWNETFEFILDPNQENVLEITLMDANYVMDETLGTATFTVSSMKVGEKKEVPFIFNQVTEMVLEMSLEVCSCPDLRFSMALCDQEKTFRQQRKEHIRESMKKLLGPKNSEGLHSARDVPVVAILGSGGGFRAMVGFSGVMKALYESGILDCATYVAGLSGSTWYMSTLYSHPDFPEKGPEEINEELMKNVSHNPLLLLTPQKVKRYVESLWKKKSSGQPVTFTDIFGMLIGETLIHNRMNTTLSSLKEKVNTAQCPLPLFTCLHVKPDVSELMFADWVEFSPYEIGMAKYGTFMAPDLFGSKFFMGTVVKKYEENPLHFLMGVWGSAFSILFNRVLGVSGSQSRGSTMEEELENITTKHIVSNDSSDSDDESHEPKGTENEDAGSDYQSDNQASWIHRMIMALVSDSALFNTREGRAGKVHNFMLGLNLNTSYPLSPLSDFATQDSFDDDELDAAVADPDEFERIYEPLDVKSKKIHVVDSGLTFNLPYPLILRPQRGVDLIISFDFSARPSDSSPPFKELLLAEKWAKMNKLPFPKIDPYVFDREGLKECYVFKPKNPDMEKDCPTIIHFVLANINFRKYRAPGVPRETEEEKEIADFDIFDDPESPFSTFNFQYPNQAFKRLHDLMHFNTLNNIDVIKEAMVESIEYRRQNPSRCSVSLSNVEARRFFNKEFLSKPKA
Experiment: Measurement of cPLA2 inhibitory activity (release of [14C]-arachidonic acid from phosphatidyl choline liposome)
Assay type: biochemical
Details: not given
Protocol: The cPLA2 inhibitory activity was measured based on the method described in the document [See H. Naraba et al., J. Immunol. 160, 2974-2982 (1998)] and modified in the following way.
A DMSO solution of the present invitation compounds was diluted to 2.5 times the final concentration with the assay buffer (4 mM CaCl2, 2 mM dithiothreitol, 150 mM NaCl, 50 mM HEPES buffer solution (pH7.5)) containing 0.55 mg/ml BSA. To 20 μl of this, cPLA2 crudely purified from the cytoplasm fraction of U937 was added in an amount of 10 μl after dilution by an assay buffer solution containing 0.55 mg/ml BSA. A liposome prepared by ultrasonically treating L-α-1-palmitoyl-2-[14C]arachidonyl-phosphatidyl choline (made by PerkinElmer) and adjusted by the assay buffer solution to a concentration of phosphatidyl choline of 10 μM was added and stirred in by an amount of 20 μl and the mixture was reacted at 37° C. for 60 minutes. The [^14C]-arachidonic acid released due to the reaction was extracted based on the method described in the documents [see V. P. Dole et al., J. Biol. Chem. 235, 2595 (1960)], was added to Lumaplate® (made by PerkinElmer), dried, then measured by Topcount® (made by PerkinElmer). Except for not adding the present invention compounds, the same procedure was performed as the above to obtain the enzyme control. Except for not adding the invention compounds and not adding the enzyme, the same procedure was followed as above to obtain a negative control. The inhibiting activity was expressed as a percent (%) of the value minus the negative control with respect to the value of the enzyme control minus the negative control. From this, the 50% inhibiting concentration (IC50, μM) was calculated.

Compound	IC50
O=C(O)/C=C/c1ccc2c(c1)c(C(=O)Cc1ccc(F)cc1)cn2-c1ccccc1 [Example 60, (2E)-3-{3-[(4-fluorophenyl)acetyl]-1-phenyl-1H-indol-5-yl}-2-propenoic acid]	5720 nM
O=C(O)CCc1ccc2c(c1)c(C(=O)Cc1ccc(F)cc1)cn2-c1ccccc1 [Example 61, 3-{3-[(4-fluorophenyl)acetyl]-1-phenyl-1H-indol-5-yl}propanoic acid]	653 nM
COc1ccc(CC(=O)c2cn(-c3ccccc3)c3ccc(/C=C/C(=O)O)cc23)cc1 [Example 64, (2E)-3-{3-[(4-methoxyphenyl)acetyl]-1-phenyl-1H-indol-5-yl}-2-propenoic acid]	19600 nM
COc1ccc(CC(=O)c2cn(-c3ccccc3)c3ccc(CCC(=O)O)cc23)cc1 [Example 65, 3-{3-[(4-methoxyphenyl)acetyl]-1-phenyl-1H-indol-5-yl}propanoic acid]	1910 nM

Same assay, conditions: cPLA2 from U937 cytoplasm fraction, [14C]arachidonyl-phosphatidyl choline liposome, 37° C., 60 minutes; read-out: cPLA2 inhibitory activity, 50% inhibiting concentration IC50

Compound	IC50
O=C(O)CCc1ccc2c(c1)c(CCc1ccc(F)cc1)cn2-c1ccccc1 [Example 62, 3-{3-[2-(4-fluorophenyl)ethyl]-1-phenyl-1H-indol-5-yl}propanoic acid 2-amino-2-(hydroxymethyl)propane-1,3-diol salt (1:1)]	565 nM
COc1ccc(CCc2cn(-c3ccccc3)c3ccc(CCC(=O)O)cc23)cc1 [Example 66, 3-{3-[2-(4-methoxyphenyl)ethyl]-1-phenyl-1H-indol-5-yl}propanoic acid 2-amino-2-(hydroxymethyl)propane-1,3-diol salt (1:1)]	718 nM
COc1cccc(CCc2cn(-c3ccccc3)c3ccc(CCC(=O)O)cc23)c1 [Example 68, 3-{3-[2-(3-methoxyphenyl)ethyl]-1-phenyl-1H-indol-5-yl}propanoic acid 2-amino-2-(hydroxymethyl)propane-1,3-diol salt (1:1)]	1000 nM
COc1ccc(CCc2cn(-c3ccccc3)c3ccc(CCC(=O)O)cc23)cc1OC [Example 70, 3-{3-[2-(3,4-dimethoxyphenyl)ethyl]-1-phenyl-1H-indol-5-yl}propanoic acid 2-amino-2-(hydroxymethyl)propane-1,3-diol salt (1:1)]	1360 nM
COc1ccc(-n2cc(CCc3ccccc3)c3cc(/C=C/C(=O)O)ccc32)cc1 [Example 74, (2E)-3-[1-(4-methoxyphenyl)-3-(2-phenylethyl)-1H-indol-5-yl]-2-propenoic acid]	157 nM
COc1ccc(-n2cc(CCc3ccccc3)c3cc(CCC(=O)O)ccc32)cc1 [Example 77, 3-[1-(4-methoxyphenyl)-3-(2-phenylethyl)-1H-indol-5-yl]propanoic acid 2-amino-2-(hydroxymethyl)propane-1,3-diol salt (1:1)]	26 nM
O=C(O)CCc1ccc2c(c1)c(CCc1ccccc1)cn2-c1ccc(C(=O)O)cc1 [Example 79, 4-[5-(2-carboxyethyl)-3-(2-phenylethyl)-1H-indol-1-yl]benzoic acid]	180 nM
N#Cc1ccc(-n2cc(CCc3ccccc3)c3cc(CCC(=O)O)ccc32)cc1 [Example 81, 3-[1-(4-cyanophenyl)-3-(2-phenylethyl)-1H-indol-5-yl]propanoic acid]	58 nM
O=C(O)CCc1ccc2c(c1)c(CCc1ccccc1)cn2-c1ccc([N+](=O)[O-])cc1 [Example 83, 3-[1-(4-nitrophenyl)-3-(2-phenylethyl)-1H-indol-5-yl]propanoic acid]	101 nM
CN(C)c1ccc(-n2cc(CCc3ccccc3)c3cc(CCC(=O)O)ccc32)cc1 [Example 85, 3-{1-[4-(dimethylamino)phenyl]-3-(2-phenylethyl)-1H-indol-5-yl}propanoic acid]	77 nM
CN(C)c1ccc(-n2cc(CCc3ccccc3)c3cc(CCC(=O)O)ccc32)cc1 [Example 86, 3-{1-[4-(dimethylamino)phenyl]-3-(2-phenylethyl)-1H-indol-5-yl}propanoic acid 2-amino-2-(hydroxymethyl)propane-1,3-diol salt (1:1)]	24 nM
CCN(CC)c1ccc(-n2cc(CCc3ccccc3)c3cc(CCC(=O)O)ccc32)cc1 [Example 88, 3-{1-[4-(diethylamino)phenyl]-3-(2-phenylethyl)-1H-indol-5-yl}propanoic acid]	142 nM
CC(=O)Nc1ccc(-n2cc(CCc3ccccc3)c3cc(CCC(=O)O)ccc32)cc1 [Example 91, 3-{1-[4-(acetylamino)phenyl]-3-(2-phenylethyl)-1H-indol-5-yl}propanoic acid 2-amino-2-(hydroxymethyl)propane-1,3-diol salt (1:1)]	207 nM
CC(C)(C)C(=O)Nc1ccc(-n2cc(CCc3ccccc3)c3cc(CCC(=O)O)ccc32)cc1 [Example 93, 3-[1-{4-[(2,2-dimethylpropanoyl)amino]phenyl}-3-(2-phenylethyl)-1H-indol-5-yl]propanoic acid 2-amino-2-(hydroxymethyl)propane-1,3-diol salt (1:1)]	112 nM
Cc1ccc(-n2cc(CCc3ccccc3)c3cc(CCC(=O)O)ccc32)cc1 [Example 95, 3-[1-(4-methylphenyl)-3-(2-phenylethyl)-1H-indol-5-yl]propanoic acid 2-amino-2-(hydroxymethyl)propane-1,3-diol salt (1:1)]	77 nM
Cc1cccc(-n2cc(CCc3ccccc3)c3cc(CCC(=O)O)ccc32)c1 [Example 97, 3-[1-(3-methylphenyl)-3-(2-phenylethyl)-1H-indol-5-yl]propanoic acid 2-amino-2-(hydroxymethyl)propane-1,3-diol salt (1:1)]	99 nM
Cc1ccccc1-n1cc(CCc2ccccc2)c2cc(CCC(=O)O)ccc21 [Example 99, 3-[1-(2-methylphenyl)-3-(2-phenylethyl)-1H-indol-5-yl]propanoic acid 2-amino-2-(hydroxymethyl)propane-1,3-diol salt (1:1)]	288 nM
Cc1ccc(-n2cc(CCc3ccccc3)c3cc(CCC(=O)O)ccc32)cc1C [Example 101, 3-[1-(3,4-dimethylphenyl)-3-(2-phenylethyl)-1H-indol-5-yl]propanoic acid 2-amino-2-(hydroxymethyl)propane-1,3-diol salt (1:1)]	96 nM
CC(C)(C)c1ccc(-n2cc(CCc3ccccc3)c3cc(CCC(=O)O)ccc32)cc1 [Example 103, 3-[1-(4-tert-butylphenyl)-3-(2-phenylethyl)-1H-indol-5-yl]propanoic acid 2-amino-2-(hydroxymethyl)propane-1,3-diol salt (1:1)]	419 nM
O=C(O)CCc1ccc2c(c1)c(CCc1ccccc1)cn2-c1ccc(Cl)cc1 [Example 105, 3-[1-(4-chlorophenyl)-3-(2-phenylethyl)-1H-indol-5-yl]propanoic acid 2-amino-2-(hydroxymethyl)propane-1,3-diol salt (1:1)]	36 nM
COc1cccc(-n2cc(CCc3ccccc3)c3cc(CCC(=O)O)ccc32)c1 [Example 107, 3-[1-(3-methoxyphenyl)-3-(2-phenylethyl)-1H-indol-5-yl]propanoic acid 2-amino-2-(hydroxymethyl)propane-1,3-diol salt (1:1)]	195 nM
COc1ccccc1-n1cc(CCc2ccccc2)c2cc(CCC(=O)O)ccc21 [Example 109, 3-[1-(2-methoxyphenyl)-3-(2-phenylethyl)-1H-indol-5-yl]propanoic acid 2-amino-2-(hydroxymethyl)propane-1,3-diol salt (1:1)]	224 nM
CCOc1ccc(-n2cc(CCc3ccccc3)c3cc(CCC(=O)O)ccc32)cc1 [Example 112, 3-[1-(4-ethoxyphenyl)-3-(2-phenylethyl)-1H-indol-5-yl]propanoic acid 2-amino-2-(hydroxymethyl)propane-1,3-diol salt (1:1)]	15 nM
